Test results published in the NIST ThermoML archive (doi:10.1021/je700193w).
Numbers after ± are expanded uncertainties.

What was measured:
[1] = 101.33 kPa, Liquid
[2] = xn = mol fraction of the nth substance listed; conditions: 101 kPa, Liquid
[3] = excess molar enthalpy (molar enthalpy of mixing); xn = mol fraction of the nth substance listed; conditions: 101 kPa, Liquid

SMILES: CC(C)CO [2-methyl-1-propanol]
- mass density ([1]; 283.15 K): 809.36 ± 0.72 kg/m3
- speed of sound ([1]; 283.15 K): 1238.7 ± 5 m/s
- mass density ([1]; 298.15 K): 798.03 ± 0.74 kg/m3
- speed of sound ([1]; 298.15 K): 1188 ± 4.9 m/s
- mass density ([1]; 303.15 K): 794.17 ± 0.75 kg/m3
- speed of sound ([1]; 303.15 K): 1174.3 ± 4.8 m/s
- mass density ([1]; 313.15 K): 786.1 ± 0.76 kg/m3
- speed of sound ([1]; 313.15 K): 1138 ± 4.7 m/s
- mass density ([1]; 323.15 K): 777.85 ± 0.77 kg/m3
- speed of sound ([1]; 323.15 K): 1108.2 ± 4.6 m/s

SMILES: C=C1CCC2CC1C2(C)C (stereo not drawn) [β-pinene]
- mass density ([1]; 283.15 K): 879.07 ± 0.61 kg/m3
- speed of sound ([1]; 283.15 K): 1354.7 ± 5.4 m/s
- mass density ([1]; 298.15 K): 867.11 ± 0.63 kg/m3
- speed of sound ([1]; 298.15 K): 1295.1 ± 5.2 m/s
- mass density ([1]; 303.15 K): 863.17 ± 0.63 kg/m3
- speed of sound ([1]; 303.15 K): 1278.6 ± 5.1 m/s
- mass density ([1]; 313.15 K): 854.87 ± 0.65 kg/m3
- speed of sound ([1]; 313.15 K): 1236.3 ± 5 m/s
- mass density ([1]; 323.15 K): 846.75 ± 0.66 kg/m3
- speed of sound ([1]; 323.15 K): 1200.7 ± 4.9 m/s

SMILES: C=C1CCC2CC1C2(C)C (stereo not drawn) [β-pinene] + CC(C)(C)O
- mass density ([2]; 303.15 K, x1 = 0.0534): 782.04 ± 0.76 kg/m3
- speed of sound ([2]; 303.15 K, x1 = 0.0534): 1110 ± 4.7 m/s
- mass density ([2]; 303.15 K, x1 = 0.1048): 787.79 ± 0.75 kg/m3
- speed of sound ([2]; 303.15 K, x1 = 0.1048): 1118.6 ± 4.7 m/s
- mass density ([2]; 303.15 K, x1 = 0.2017): 798.21 ± 0.73 kg/m3
- speed of sound ([2]; 303.15 K, x1 = 0.2017): 1135.6 ± 4.7 m/s
- mass density ([2]; 303.15 K, x1 = 0.2814): 806.31 ± 0.72 kg/m3
- speed of sound ([2]; 303.15 K, x1 = 0.2814): 1150.6 ± 4.8 m/s
- mass density ([2]; 303.15 K, x1 = 0.4041): 817.92 ± 0.7 kg/m3
- speed of sound ([2]; 303.15 K, x1 = 0.4041): 1173.7 ± 4.8 m/s
- mass density ([2]; 303.15 K, x1 = 0.5042): 826.75 ± 0.69 kg/m3
- speed of sound ([2]; 303.15 K, x1 = 0.5042): 1192.6 ± 4.9 m/s
- mass density ([2]; 303.15 K, x1 = 0.6025): 834.76 ± 0.67 kg/m3
- speed of sound ([2]; 303.15 K, x1 = 0.6025): 1210.5 ± 5 m/s
- mass density ([2]; 303.15 K, x1 = 0.7042): 842.46 ± 0.66 kg/m3
- speed of sound ([2]; 303.15 K, x1 = 0.7042): 1228.3 ± 5 m/s
- mass density ([2]; 303.15 K, x1 = 0.8048): 849.62 ± 0.65 kg/m3
- speed of sound ([2]; 303.15 K, x1 = 0.8048): 1244.8 ± 5.1 m/s
- mass density ([2]; 303.15 K, x1 = 0.9007): 856.11 ± 0.64 kg/m3
- speed of sound ([2]; 303.15 K, x1 = 0.9007): 1260.2 ± 5.1 m/s
- mass density ([2]; 303.15 K, x1 = 0.9495): 859.38 ± 0.63 kg/m3
- speed of sound ([2]; 303.15 K, x1 = 0.9495): 1268.7 ± 5.1 m/s
- mass density ([2]; 313.15 K, x1 = 0.0561): 771.94 ± 0.77 kg/m3
- speed of sound ([2]; 313.15 K, x1 = 0.0561): 1066.4 ± 4.5 m/s
- mass density ([2]; 313.15 K, x1 = 0.108): 777.84 ± 0.76 kg/m3
- speed of sound ([2]; 313.15 K, x1 = 0.108): 1076 ± 4.6 m/s
- mass density ([2]; 313.15 K, x1 = 0.2041): 788.5 ± 0.75 kg/m3
- speed of sound ([2]; 313.15 K, x1 = 0.2041): 1094.3 ± 4.6 m/s
- mass density ([2]; 313.15 K, x1 = 0.2996): 798.32 ± 0.73 kg/m3
- speed of sound ([2]; 313.15 K, x1 = 0.2996): 1112.7 ± 4.7 m/s
- mass density ([2]; 313.15 K, x1 = 0.4028): 808.25 ± 0.72 kg/m3
- speed of sound ([2]; 313.15 K, x1 = 0.4028): 1132.3 ± 4.7 m/s
- mass density ([2]; 313.15 K, x1 = 0.5039): 817.37 ± 0.7 kg/m3
- speed of sound ([2]; 313.15 K, x1 = 0.5039): 1151 ± 4.8 m/s
- mass density ([2]; 313.15 K, x1 = 0.5964): 825.06 ± 0.69 kg/m3
- speed of sound ([2]; 313.15 K, x1 = 0.5964): 1167.1 ± 4.8 m/s
- mass density ([2]; 313.15 K, x1 = 0.6957): 832.77 ± 0.68 kg/m3
- speed of sound ([2]; 313.15 K, x1 = 0.6957): 1183.8 ± 4.9 m/s
- mass density ([2]; 313.15 K, x1 = 0.7979): 840.16 ± 0.66 kg/m3
- speed of sound ([2]; 313.15 K, x1 = 0.7979): 1201.1 ± 4.9 m/s
- mass density ([2]; 313.15 K, x1 = 0.893): 846.86 ± 0.65 kg/m3
- speed of sound ([2]; 313.15 K, x1 = 0.893): 1216.7 ± 5 m/s
- mass density ([2]; 313.15 K, x1 = 0.9475): 850.67 ± 0.65 kg/m3
- speed of sound ([2]; 313.15 K, x1 = 0.9475): 1226.2 ± 5 m/s
- mass density ([2]; 323.15 K, x1 = 0.0554): 761.34 ± 0.79 kg/m3
- speed of sound ([2]; 323.15 K, x1 = 0.0554): 1027.2 ± 4.4 m/s
- mass density ([2]; 323.15 K, x1 = 0.1025): 766.94 ± 0.78 kg/m3
- speed of sound ([2]; 323.15 K, x1 = 0.1025): 1036.7 ± 4.4 m/s
- speed of sound ([2]; 323.15 K, x1 = 0.2016): 1056.6 ± 4.5 m/s
- mass density ([2]; 323.15 K, x1 = 0.2032): 778.49 ± 0.76 kg/m3
- mass density ([2]; 323.15 K, x1 = 0.3022): 788.82 ± 0.75 kg/m3
- speed of sound ([2]; 323.15 K, x1 = 0.3022): 1076.4 ± 4.6 m/s
- mass density ([2]; 323.15 K, x1 = 0.3988): 798.4 ± 0.73 kg/m3
- speed of sound ([2]; 323.15 K, x1 = 0.3988): 1095.2 ± 4.6 m/s
- mass density ([2]; 323.15 K, x1 = 0.5053): 808.25 ± 0.72 kg/m3
- speed of sound ([2]; 323.15 K, x1 = 0.5053): 1115.2 ± 4.7 m/s
- mass density ([2]; 323.15 K, x1 = 0.5996): 816.33 ± 0.7 kg/m3
- speed of sound ([2]; 323.15 K, x1 = 0.5996): 1132.3 ± 4.7 m/s
- mass density ([2]; 323.15 K, x1 = 0.7001): 824.27 ± 0.69 kg/m3
- speed of sound ([2]; 323.15 K, x1 = 0.7001): 1149.5 ± 4.8 m/s
- mass density ([2]; 323.15 K, x1 = 0.7941): 831.23 ± 0.68 kg/m3
- speed of sound ([2]; 323.15 K, x1 = 0.799): 1165.8 ± 4.8 m/s
- speed of sound ([2]; 323.15 K, x1 = 0.8861): 1180.1 ± 4.9 m/s
- mass density ([2]; 323.15 K, x1 = 0.8905): 838.16 ± 0.67 kg/m3
- speed of sound ([2]; 323.15 K, x1 = 0.9367): 1188.6 ± 4.9 m/s
- mass density ([2]; 323.15 K, x1 = 0.9453): 842.1 ± 0.66 kg/m3
- excess molar enthalpy ([3]; 303.15 K, x1 = 0.0529): 0.0559 ± 0.00287 kcal/mol
- excess molar enthalpy ([3]; 303.15 K, x1 = 0.109): 0.102 ± 0.00406 kcal/mol
- excess molar enthalpy ([3]; 303.15 K, x1 = 0.2159): 0.162 ± 0.00574 kcal/mol
- excess molar enthalpy ([3]; 303.15 K, x1 = 0.3175): 0.192 ± 0.00669 kcal/mol
- excess molar enthalpy ([3]; 303.15 K, x1 = 0.4299): 0.198 ± 0.00693 kcal/mol
- excess molar enthalpy ([3]; 303.15 K, x1 = 0.5331): 0.201 ± 0.00693 kcal/mol
- excess molar enthalpy ([3]; 303.15 K, x1 = 0.6229): 0.194 ± 0.00669 kcal/mol
- excess molar enthalpy ([3]; 303.15 K, x1 = 0.7198): 0.175 ± 0.00621 kcal/mol
- excess molar enthalpy ([3]; 303.15 K, x1 = 0.8249): 0.15 ± 0.0055 kcal/mol
- excess molar enthalpy ([3]; 303.15 K, x1 = 0.9096): 0.114 ± 0.00454 kcal/mol
- excess molar enthalpy ([3]; 303.15 K, x1 = 0.9686): 0.0566 ± 0.00311 kcal/mol
- excess molar enthalpy ([3]; 313.15 K, x1 = 0.0529): 0.0538 ± 0.00263 kcal/mol
- excess molar enthalpy ([3]; 313.15 K, x1 = 0.109): 0.104 ± 0.0043 kcal/mol
- excess molar enthalpy ([3]; 313.15 K, x1 = 0.2159): 0.179 ± 0.00645 kcal/mol
- excess molar enthalpy ([3]; 313.15 K, x1 = 0.3175): 0.217 ± 0.00741 kcal/mol
- excess molar enthalpy ([3]; 313.15 K, x1 = 0.4299): 0.229 ± 0.00789 kcal/mol
- excess molar enthalpy ([3]; 313.15 K, x1 = 0.5331): 0.238 ± 0.00813 kcal/mol
- excess molar enthalpy ([3]; 313.15 K, x1 = 0.6229): 0.235 ± 0.00813 kcal/mol
- excess molar enthalpy ([3]; 313.15 K, x1 = 0.7198): 0.22 ± 0.00765 kcal/mol
- excess molar enthalpy ([3]; 313.15 K, x1 = 0.8249): 0.184 ± 0.00645 kcal/mol
- excess molar enthalpy ([3]; 313.15 K, x1 = 0.9096): 0.139 ± 0.00526 kcal/mol
- excess molar enthalpy ([3]; 313.15 K, x1 = 0.9686): 0.0621 ± 0.00382 kcal/mol
- excess molar enthalpy ([3]; 323.15 K, x1 = 0.0529): 0.102 ± 0.00406 kcal/mol
- excess molar enthalpy ([3]; 323.15 K, x1 = 0.109): 0.141 ± 0.00526 kcal/mol
- excess molar enthalpy ([3]; 323.15 K, x1 = 0.2159): 0.201 ± 0.00693 kcal/mol
- excess molar enthalpy ([3]; 323.15 K, x1 = 0.3175): 0.236 ± 0.00813 kcal/mol
- excess molar enthalpy ([3]; 323.15 K, x1 = 0.4299): 0.251 ± 0.0086 kcal/mol
- excess molar enthalpy ([3]; 323.15 K, x1 = 0.5331): 0.263 ± 0.00884 kcal/mol
- excess molar enthalpy ([3]; 323.15 K, x1 = 0.6229): 0.262 ± 0.00884 kcal/mol
- excess molar enthalpy ([3]; 323.15 K, x1 = 0.7198): 0.248 ± 0.00837 kcal/mol
- excess molar enthalpy ([3]; 323.15 K, x1 = 0.8249): 0.199 ± 0.00693 kcal/mol
- excess molar enthalpy ([3]; 323.15 K, x1 = 0.9096): 0.147 ± 0.00574 kcal/mol
- excess molar enthalpy ([3]; 323.15 K, x1 = 0.9686): 0.0528 ± 0.00406 kcal/mol

SMILES: CC(C)(C)O [2-methylpropan-2-ol]
- mass density ([1]; 303.15 K): 775.75 ± 0.78 kg/m3
- speed of sound ([1]; 303.15 K): 1101.9 ± 4.6 m/s
- mass density ([1]; 313.15 K): 765.05 ± 0.8 kg/m3
- speed of sound ([1]; 313.15 K): 1056.4 ± 4.5 m/s
- mass density ([1]; 323.15 K): 754.12 ± 0.81 kg/m3
- speed of sound ([1]; 323.15 K): 1015.9 ± 4.4 m/s
